# Laboratory results taken from ChEMBL document CHEMBL1124111, “Studies directed toward ascertaining the active conformation of 1,4-dihydropyridine calcium entry blockers” (J Med Chem, 1988).
# Tests used:
# Oryctolagus cuniculus = species: Oryctolagus cuniculus; test: Compound was tested for ability to relax potassium-contracted rabbit aorta smooth muscle; type: functional
# [1] = molecular target: Voltage-dependent L-type calcium channel (Cavia porcellus); test: Dissociation constant for inhibition of [3H]nitrendipine binding to guinea pig myocardial membranes; conditions: read-out: Kd1
# [2] = molecular target: Voltage-dependent L-type calcium channel (Cavia porcellus); test: as above; conditions: read-out: Kd2
# [3] = test system: Voltage-dependent L-type calcium channel (Cavia porcellus); test: Bmax2 from dihydropyridine receptor binding assay in guinea pig myocardial membranes
# [4] = test system: Voltage-dependent L-type calcium channel (Cavia porcellus); test: Bmax1 from dihydropyridine receptor binding assay in guinea pig myocardial membranes
# [5] = molecular target: Voltage-dependent L-type calcium channel (Cavia porcellus); test: Dissociation constant for inhibition of [3H]nitrendipine binding to guinea pig myocardial membranes; conditions: read-out: Kd2; remark: listed apart in the source
IC50 (Oryctolagus cuniculus) [nM],Kd [1] [nM],Kd [2] [nM],Bmax2 [3] [%],Bmax1 [4] [%],Kd [5] [nM],Structure (SMILES)
1,0.23,85,21,79,–,COC(=O)C1=C(C)N=C(C)/C(=C(\O)OC)C1c1cccc([N+](=O)[O-])c1Cl (stereo unspecified)
185,1.25,–,92,8,107,COC(=O)C1=C(C)N=C(C)/C(=C(\O)OC)C1c1ccc([N+](=O)[O-])cc1Cl (stereo unspecified)
11.1,2.15,152,17,83,–,COC(=O)C1=C(C)N=C(C)/C(=C(\O)OC)C1c1cccc(C#N)c1 (stereo unspecified)
13.6,0.95,74.4,51,49,–,COC(=O)C1=C(C)N=C(C)/C(=C(\O)OC)C1c1cc([N+](=O)[O-])ccc1Cl (stereo unspecified)
3,0.006,1,79,21,–,COC(=O)C1=C(C)N=C(C)/C(=C(\O)OC)C1c1ccccc1Cl (stereo unspecified)

Structure (SMILES),IC50 (Oryctolagus cuniculus) [nM],Kd [1] [nM],Kd [2] [nM],Bmax2 [3] [%],Bmax1 [4] [%],Kd [5] [nM]
COC(=O)C1=C(C)NC(C)=C(C(=O)OC)C1c1ccccc1[N+](=O)[O-] [NIFEDIPINE],0.5,–,–,–,–,–
